From patent US8993756B2 (Merck Sharp & Dohme Corp., priority 2011, dated 2015)

How the values were obtained:
JAK3 = JAK3 (Homo sapiens (Human), UniProt P52333); test: Jak Biochemical HTRF Assay (JAK3); conditions: recombinant GST-tagged catalytic domain, [ATP] 2.9 μM
JAK2 = JAK2 (Homo sapiens (Human), UniProt O60674); test: Jak Biochemical HTRF Assay (JAK2); conditions: recombinant GST-tagged catalytic domain, [ATP] 8.5 μM
JAK2, sequence (O60674 849-1124): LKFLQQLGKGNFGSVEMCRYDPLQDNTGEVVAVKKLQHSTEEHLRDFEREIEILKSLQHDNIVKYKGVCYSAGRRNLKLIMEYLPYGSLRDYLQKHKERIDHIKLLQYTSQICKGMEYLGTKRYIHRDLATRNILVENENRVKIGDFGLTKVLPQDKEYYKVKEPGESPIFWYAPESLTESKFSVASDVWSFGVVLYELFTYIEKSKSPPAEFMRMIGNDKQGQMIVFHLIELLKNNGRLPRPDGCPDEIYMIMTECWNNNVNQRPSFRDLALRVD

JAK3, sequence (P52333 822-1111): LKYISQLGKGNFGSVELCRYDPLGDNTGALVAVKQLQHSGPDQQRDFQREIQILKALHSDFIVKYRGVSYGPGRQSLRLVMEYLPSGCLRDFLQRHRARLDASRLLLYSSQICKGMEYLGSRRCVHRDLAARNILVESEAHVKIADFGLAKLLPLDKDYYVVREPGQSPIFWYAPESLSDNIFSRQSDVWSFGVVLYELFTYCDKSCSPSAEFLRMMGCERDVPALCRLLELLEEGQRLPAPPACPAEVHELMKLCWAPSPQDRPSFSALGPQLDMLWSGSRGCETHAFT

Row | Structure (SMILES) | IC50 (JAK3; given as range class) [nM] | IC50 (JAK2; given as range class) [nM] | IC50 (JAK3) [nM] | IC50 (JAK2) [nM]
1 | CCOC(=O)c1c[nH]c2ncnc(-c3cccc(N(C)S(C)(=O)=O)c3)c12 [Example 1-102, ethyl 4-{3-[methyl(methylsulfonyl)amino]phenyl}-7H-pyrrolo[2,3-d]pyrimidine-5-carboxylate] | 10 to 500 | > 500 |  | 
2 | COc1cccc(-c2ncnc3[nH]cc(-c4ccccc4OC)c23)c1 [Example 33-4, 5-(2-methoxphenyl)-4-(3-methoxyphenyl)-7H-pyrrolo[2,3-d]pyrimidine] | 10 to 500 | 10 to 500 |  | 
3 | CCOC(=O)c1c[nH]c2ncnc(-c3cccc(NC(=O)CCC(C)=O)c3)c12 [Example 5-7, ethyl 4-{3-[(4-oxopentanoyl)amino]phenyl}-7H-pyrrolo[2,3-d]pyrimidine-5-carboxylate] | 10 to 500 | > 500 |  | 
4 | CCOC(=O)c1c[nH]c2ncnc(-c3ccc4c(C(=O)N(C)C)n(C)nc4c3)c12 [Example 1-30, ethyl 4-[3-(dimethylcarbamoyl)-2-methyl-2H-indazol-6-yl]-7H-pyrrolo[2,3-d]pyrimidine-5-carboxylate] | 10 to 500 | > 500 |  | 
5 | C=C(C)C(=O)Nc1cccc(-c2ncnc3[nH]cc(-c4ccc(C)cc4)c23)c1 [Example 20-7, 2-methyl-N-{3-[5-(4-methylphenyl)-7H-pyrrolo[2,3-d]pyrimidin-4-yl]phenyl}prop-2-enamide] |  |  | 5.4 | > 1500
6 | C=C(C)C(=O)Nc1cccc(-c2ncnc3[nH]cc(-c4nnc(C)s4)c23)c1 [Example 27, N-(3-(5-(5-Methyl-1,3,4-thiadiazol-2-yl)-7H-pyrrolo[2,3-d]pyrimidin-4-yl)phenyl)methacrylamide] | 10 to 500 | > 500 |  | 
7 | CCOC(=O)c1c[nH]c2ncnc(-c3cccc(OCC(F)(F)F)c3)c12 [Example 1-21, ethyl 4-[3-(2,2,2-trifluoroethoxy)phenyl]-7H-pyrrolo[2,3-d]pyrimidine-5-carboxylate] |  |  | 3.5 | 73
8 | CCOC(=O)c1c[nH]c2ncnc(-c3cnn(CCS(C)(=O)=O)c3)c12 [Example 1-92, ethyl 4-{1-[2-(methylsulfonyl)ethyl]-1H-pyrazol-4-yl}-7H-pyrrolo[2,3-d]pyrimidine-5-carboxylate] | 10 to 500 | > 500 |  | 
9 | CCOC(=O)c1c[nH]c2ncnc(-c3cccc(C#N)c3)c12 [Example 1-6, ethyl 4-(3-cyanophenyl)-7H-pyrrolo[2,3-d]pyrimidine-5-carboxylate] | 10 to 500 | 10 to 500 |  | 
10 | COc1ccc(F)cc1-c1c[nH]c2ncnc(-c3ccccc3)c12 [Example 33-3, 5-(5-fluoro-2-methoxyphenyl)-4-phenyl-7H-pyrrolo[2,3-d]pyrimidine] |  |  | 1.4 | 71
11 | CCOC(=O)c1c[nH]c2ncnc(-c3ccc(CO)nc3)c12 [Example 1-58, ethyl 4-[6-(hydroxymethyl)pyridin-3-yl]-7H-pyrrolo[2,3-d]pyrimidine-5-carboxylate] | 10 to 500 | > 500 |  | 
12 | CCOC(=O)c1c[nH]c2ncnc(-c3ccc(-n4cccn4)cc3)c12 [Example 1-94, ethyl 4-[4-(1H-pyrazol-1-yl)phenyl]-7H-pyrrolo[2,3-d]pyrimidine-5-carboxylate] |  |  | 7.5 | 121
13 | CCOC(=O)c1c[nH]c2ncnc(-c3cccc4[nH]ncc34)c12 [Example 1-64, ethyl 4-(1H-indazol-4-yl)-7H-pyrrolo[2,3-d]pyrimidine-5-carboxylate] | 10 to 500 | > 500 |  | 
14 | CCOC(=O)c1c[nH]c2ncnc(-c3cccc(NC(=O)/C=C(/C)C(F)(F)F)c3)c12 [Example 5-34, ethyl 4-(3-{[(2Z)-4,4,4-trifluoro-3-methylbut-2-enoyl]amino}phenyl)-7H-pyrrolo[2,3-d]pyrimidine-5-carboxylate] |  |  | 1.9 | > 1500
15 | CCOC(=O)c1c[nH]c2ncnc(C3=CCCCC3)c12 [Example 1-23, ethyl 4-cyclohex-1-en-1-yl-7H-pyrrolo[2,3-d]pyrimidine-5-carboxylate] |  |  | 6 | 62
16 | CCOC(=O)c1c[nH]c2ncnc(-c3cncc(CO)c3)c12 [Example 1-106, ethyl 4-[5-(hydroxymethyl)pyridin-3-yl]-7H-pyrrolo[2,3-d]pyrimidine-5-carboxylate] | 10 to 500 | > 500 |  | 
17 | C=C(C)C(=O)Nc1cccc(-c2ncnc3[nH]cc(-c4nc(C)co4)c23)c1 [Example 29, N-(3-(5-(4-Methyloxazol-2-yl)-7H-pyrrolo[2,3-d]pyrimidin-4-yl)phenyl)methacrylamide] | 10 to 500 | > 500 |  | 
18 | CCOC(=O)c1c[nH]c2ncnc(C3=CCCOC3)c12 [Example 1-88, ethyl 4-(5,6-dihydro-2H-pyran-3-yl)-7H-pyrrolo[2,3-d]pyrimidine-5-carboxylate] | 10 to 500 | > 500 |  | 

Row | Structure (SMILES) | IC50 (JAK3; given as range class) [nM] | IC50 (JAK2; given as range class) [nM] | IC50 (JAK3) [nM] | IC50 (JAK2) [nM]
19 | CCOC(=O)c1c[nH]c2ncnc(-c3ccc4cn(C)nc4c3)c12 [Example 1-5, ethyl 4-(2-methyl-2H-indazol-6-yl)-7H-pyrrolo[2,3-d]pyrimidine-5-carboxylate] |  |  | 7.2 | 273
20 | CCOC(=O)c1c[nH]c2ncnc(-c3ccc(S(C)(=O)=O)cc3)c12 [Example 1-11, ethyl 4-[4-(methylsulfonyl)phenyl]-7H-pyrrolo[2,3-d]pyrimidine-5-carboxylate] | 10 to 500 | > 500 |  | 
21 | C=C(C)C(=O)Nc1cccc(-c2ncnc3[nH]cc(-c4nccs4)c23)c1 [Example 31, N-(3-(5-(Thiazol-2-yl)-7H-pyrrolo[2,3-d]pyrimidin-4-yl)phenyl)methacrylamide] | 10 to 500 | > 500 |  | 
22 | CCOC(=O)c1c[nH]c2ncnc(-c3ccc4c(c3)CN(C(=O)OC(C)(C)C)CCO4)c12 [Example 1-79, tent-butyl 7-[5-(ethoxycarbonyl)-7H-pyrrolo[2,3-d]pyrimidin-4-yl]-2,3-dihydro-1,4-benzoxazepine-4(5H)-carboxylate] | 10 to 500 | > 500 |  | 
23 | CCOC(=O)c1c[nH]c2ncnc(-c3cccc(NC(=O)C=C(C)C)c3)c12 [Example 5-27, ethyl 4-{3-[(3-methylbut-2-enoyl)amino]phenyl}-7H-pyrrolo[2,3-d]pyrimidine-5-carboxylate] | 10 to 500 | > 500 |  | 
24 | c1ccc(Oc2ccccc2-c2c[nH]c3ncnc(-c4ccccc4)c23)cc1 [Example 32-6, 5-(2-phenoxyphenyl)-4-phenyl-7H-pyrrolo[2,3-d]pyrimidine] | 10 to 500 | > 500 |  | 
25 | CCOC(=O)c1c[nH]c2ncnc(-c3ccc4cc[nH]c4c3)c12 [Example 1-83, ethyl 4-(1H-indol-6-yl)-7H-pyrrolo[2,3-d]pyrimidine-5-carboxylate] |  |  | 9.7 | 137
26 | CCOC(=O)c1c[nH]c2ncnc(-c3cccc(NC(=O)C4=CC(=O)CC4)c3)c12 [Example 5-36, ethyl 4-(3-{[(3-oxocyclopent-1-en-1-yl)carbonyl]amino}phenyl)-7H-pyrrolo[2,3-d]pyrimidine-5-carboxylate] |  |  | 0.14 | > 1500
27 | C=C(CN1CCOCC1)C(=O)Nc1cccc(-c2ncnc3[nH]cc(C(=O)OCC)c23)c1 [Example 5-41, ethyl 4-(3-{[2-(morpholin-4-ylmethyl)acryloyl]amino}phenyl)-7H-pyrrolo[2,3-d]pyrimidine-5-carboxylate] |  |  | 0.66 | > 1500
28 | CCOC(=O)c1c[nH]c2ncnc(-c3ccc(C(N)=O)cc3)c12 [Example 1-7, ethyl 4-(4-carbamoylphenyl)-7H-pyrrolo[2,3-d]pyrimidine-5-carboxylate] | 10 to 500 | > 500 |  | 
29 | C=C(COC)C(=O)Nc1cccc(-c2ncnc3[nH]cc(C(=O)OCC)c23)c1 [Example 5-45, ethyl 4-(3-{[2-(methoxymethyl)acryloyl]amino}phenyl)-7H-pyrrolo[2,3-d]pyrimidine-5-carboxylate] |  |  | 0.025 | > 1500
30 | CCOC(=O)c1c[nH]c2ncnc(-c3cccc(C)c3)c12 [Example 1-46, ethyl 4-(3-methylphenyl)-7H-pyrrolo[2,3-d]pyrimidine-5-carboxylate] |  |  | 7.6 | 143
31 | CCOC(=O)c1c[nH]c2ncnc(C3=CCCN(C(=O)OC(C)(C)C)C3)c12 [Example 1-19, ethyl 4-[1-(tert-butoxycarbonyl)-1,2,5,6-tetrahydropyridin-3-yl]-7H-pyrrolo[2,3-d]pyrimidine-5-carboxylate] | 10 to 500 | > 500 |  | 
32 | CCOC(=O)c1c[nH]c2ncnc(-c3cccc(Nc4nccnc4C#N)c3)c12 [Example 6-2, Ethyl-4-{3-[(3-cyanopyrazin-2-yl)amino]phenyl}-7H-pyrrolo[2,3-d]pyrimidine-5-carboxylate] | 10 to 500 | > 500 |  | 
33 | CCOC(=O)c1c[nH]c2ncnc(-c3cccc(Nc4nc(Cl)ns4)c3)c12 [Example 6-1, Ethyl 4-{3-[(3-chloro-1,2,4-thiadiazol-5-yl)amino]phenyl}-7H-pyrrolo[2,3-d]pyrimidine-5-carboxylate] |  |  | 9.2 | 109
34 | CCOC(=O)c1c[nH]c2ncnc(-c3ccc4[nH]nc(C(F)(F)F)c4c3)c12 [Example 1-72, ethyl 4-[3-(trifluoromethyl)-1H-indazol-5-yl]-7H-pyrrolo[2,3-d]pyrimidine-5-carboxylate] | 10 to 500 | > 500 |  | 
35 | C=C(C)C(=O)Nc1cccc(-c2ncnc3[nH]cc(C(=O)OCC)c23)c1C [Example 4-13, ethyl 4-{2-methyl-3-[(2-methylacryloyl)amino]phenyl}-7H-pyrrolo[2,3-d]pyrimidine-5-carboxylate] | 10 to 500 | > 500 |  | 
36 | C=C(C)C(=O)Nc1cccc(-c2ncnc3[nH]cc(-c4cccc(F)c4)c23)c1 [Example 20-2, N-{3-[5-(3-fluorophenyl)-7H-pyrrolo[2,3-d]pyrimidin-4-yl]phenyl}-2-methylprop-2-enamide] |  |  | 0.59 | > 1500
